Data as given in US5747503A, “Selective inhibitors of biogenic amine transporters” (priority 1996, dated 1998).
“Also recorded” adds a separate entry of the source. Like-named read-outs stand apart in the source and are kept apart here.

How the values were obtained:
NMDA receptor [1] = test: NMDA-induced current in cultured hippocampal neurons, whole-cell recording; type: cell-based, rat; conditions: for IC50: Table 2
Description: Whole-cell recordings of NMDA-induced currents in cultured rat hippocampal neurons were carried out as described previously (Subramaniam, S., et al. Neurosci. Lett. 147: 213-216 (1992)). Hippocampal neurons grown in primary culture from 19-day-old Sprague-Dawley rat embryos were used 7-14 days after plating. The extracellular recording solution consisted of (in mM): 140 NaCl, 5 KCl, 0.1 CaCl2, and 10 HEPES (osmolality, 315-325 mOsm; pH, 7.4). Tetrodotoxin (1 μM) and strychnine (1 μM) were added to block Na+channel currents and glycine-activated Cl^- currents, respectively. Patch pipettes (2-5 M.OMEGA.) were prepared from filament-containing thin wall glass capillary tubes and filled with an intracellular solution that consisted of (in mM): 145 CsCl, 2 MgCl2, 5 HEPES, 0.1 CaCl2, and 1 EGTA (osmolality, 310 mOsm; pH, 7.4). Drugs were dissolved in recording solution and applied via a rapid gravity-fed perfusion system. Flow of the drug solutions was regulated by a microvalve operated by a programmable controller.
Inhibition curves were fit to the two parameter logistic equation for the best-fit estimates of the IC50 using nonlinear least squares curve fitting methods as previously described (Rothman et al. (1993), supra); Jones, S. M. and Rogawski, M. A. Mol. Neuropharmacol. 2: 303-310 (1992)).

[2] = test system: extracellular dopamine in the nucleus accumbens; test: In vivo microdialysis of extracellular dopamine in nucleus accumbens; parameters: species or system rat
Description: FIG. 3. In vivo microdialysis of extracellular dopamine in the nucleus accumbens at concentrations of 1, 10, and 100 μM of RTI-4793-14. All values are mean ±SEM (n=4). Group comparisons are made with one-way ANOVA and the Dunnetts t-test *p<0.05 and **p<0.01.
FIG. 4. Effects of systemic RTI-4793-14 (5 mg/kg, i.v.) on extracellular dopamine in the nucleus accumbens. All values are mean ± SEM (n=3). Group comparisons are made with one-way ANOVA and the Dunnetts t-test *p<0.05 and **p<0.01. FIG. 5. Schematic diagram for the synthesis of RTI-4793-41 and RTI-4793-48 compounds and analogs thereof.
Male Sprague Dawley rats (350-450 g) were anesthetized with chloral hydrate (400 mg/kg; 100 mg/ml) and supplemented as required (90 mg/kg) to abolish the corneal reflex. Animals were then placed in a stereotaxic frame and dialysis probes (CMA 12, 2 mm) were implanted into the nucleus accumbens (AP:+2mm, LAT:+l.5mm, H:-7.5mm relative to bregma) according to the atlas of Paxinos and Watson (Paxinos, G. "The rat brain in stereotaxic coordinates." (New York: Academic Press, 1982)). The dialysis probes were perfused with a physiological medium containing 145 mM NaCl, 4 mM KCl, 1.3 mM CaCl2, and 2 mM Na2 HPO41 the final pH of the medium being pH 7.4. The probes were dialyzed at a flow rate of […]. and samples were collected every 15 min.
The dialysis probes were allowed to equilibrate for 1-2 hours prior to collection of the baseline samples. […] RTI-4793-14 (1-100 μM) was then administered focally via the dialysis probe for a 15 min. sampling period at the end of which normal dialysis medium was dialyzed through the probe. Sampling continued for a further 3 samples before application of the subsequent concentration of RTI-4793-14. In a subsequent group of animals RTI-4793-14 was administered systemically (5mg/kg; 5mg/ml) via a femoral vein catheter.
The samples were analyzed for DA using HPLC with electrochemical detection. The mobile phase (75 mM NaH2 PO4, 1.5 mM sodium dodecyl sulphate, 20 mM EDTA, 15% acetonitrile and 12% methanol, pH 5.6) was filtered and degassed before pumping at a rate of 0.75 ml/min. through a HR-80 column (3m BDS, 80×4.6 mm). Electrochemical detection-was performed using a Coulochem II with Guard cell:+350 mV, Det 1: -75 mV, and Det 2: +22 mV.
In vivo microdialysis data were analyzed by using a one-way ANOVA and post-hoc Dunnetts t-test. In the focal RTI experiments in which 3 drug concentrations were administered, the baseline value for dopamine was defined as the sample preceding the application of each drug concentration. Analysis of any drug effect was therefore made comparing the baseline value prior to the drug administration.

[3] = test system: eleven neurotransmitter, four regulatory site, four ion channel, and three second-messenger assays; test: NovaScreen/NIMH Psychoactive Drug Discovery Program panel; conditions: 10^-5 M
Description: Compound 3b also was tested in the NovaScreen/NIMH Psychoactive Drug Discovery Program which included eleven neurotransmitter, four regulatory site, four ion channel, and three second-messenger assays.

[4] = test system: extracellular dopamine in the nucleus accumbens; conditions: literature; cited from earlier work
NMDA receptor [5] = conditions: Table 2; literature values (footnotes 1 and 2); read-out: NMDA Induced Current IC50; cited from earlier work
DA transporter = conditions: Kuhar et al. 1990; cited from earlier work

Row | SMILES | inhibition of NMDA-induced current responses in words (NMDA receptor [1]) | IC50 (NMDA receptor [1]) | increase in extracellular DA ([2]; focal application via the microdialysis probe, 1 μM) | increase in extracellular DA ([2]; focal application via the microdialysis probe, 10 μM) | increase in extracellular DA ([2]; intravenous, 5 mg/kg) | effect on extracellular dopamine in words ([2]; local or systemic administration in rats) | inhibition in NovaScreen panel [3] | effect on extracellular DA levels [4] | IC50 (NMDA receptor [5]) | affinity at the DA transporter labeled with [^3 H]mazindol (DA transporter)
1 | CN1[C@H](Cc2ccccc2)C[C@H]2Cc3ccccc3[C@H]21 (relative stereo) [RTI-4793-14, (2RS, 3aSR, 8aRS)-1,2,3a,8,8a-Hexahydro-2-benzyl-1-methyl-indeno[1,2-b]pyrrole] | low potency; also recorded: very low potency inhibitor | 768 µM | about 2 fold | ~8 fold | about 2 fold | increased extracellular DA; also recorded: increase the levels of dopamine in the brain | No significant inhibition | – | – | –
2 | CNC1CC(c2ccc(Cl)c(Cl)c2)c2ccccc21 (stereo not shown) [Indatraline] | very low potency | 95 µM | – | – | – | – | – | increase extracellular DA levels | – | –
3 | c1ccc(C2(N3CCCCC3)CCCCC2)cc1 [PCP, phencyclidine] | – | – | – | – | – | – | – | increase extracellular DA levels | 2 µM | low affinity
